Measurements as given in patent US12539292B2, “BRM targeting compounds and associated methods of use” (Arvinas Operations, Inc., priority 2018, dated 2026).
Read-outs that look alike come from different tables or passages of the source. Blank lines part the entries; values can stand above or below the compound they belong to.

Target: T1, BRM (Homo sapiens, UniProt P51531)
T1 construct: In-Cell Western Screen of BRM Degradation in SW1573 Cells; endogenous in cells; host or cells: SW1573
Experiment: In-cell Western screen of BRM degradation in SW1573 cells (Dmax and DC50)
Assay type: cell-based
In short: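 SW1573, overnight cpd exposure (18-20 h), 0.1% DMSO final. PFA fix, 0.5% Triton permeabilization, block; IR secondaries at 800/680 nm. Odyssey read → Dmax, DC50.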

[1] = BRM degradation, SW1573 cells, Table 2D, read-out: **Dmax (%) (% degraded)
[2] = BRM degradation, SW1573 cells, Table 2D, read-out: *DC50
[3] = BRM degradation, SW1573 cells, read-out: DC50
[4] = BRM degradation, SW1573 cells, tested at the top concentration of between 0.3 and 10 μM, read-out: Dmax (%) (% degraded)
[5] = BRM degradation, SW1573 cells, when tested at the top concentration of between 0.3 and 10 μM, read-out: Dmax (%) (% degraded)
[6] = BRM degradation, read-out: BRM DC50
[7] = SW1573, % degraded, when tested at the top concentration of between 0.3 and 10 μM, read-out: BRM Dmax (%)

T1 sequence (P51531 whole entry): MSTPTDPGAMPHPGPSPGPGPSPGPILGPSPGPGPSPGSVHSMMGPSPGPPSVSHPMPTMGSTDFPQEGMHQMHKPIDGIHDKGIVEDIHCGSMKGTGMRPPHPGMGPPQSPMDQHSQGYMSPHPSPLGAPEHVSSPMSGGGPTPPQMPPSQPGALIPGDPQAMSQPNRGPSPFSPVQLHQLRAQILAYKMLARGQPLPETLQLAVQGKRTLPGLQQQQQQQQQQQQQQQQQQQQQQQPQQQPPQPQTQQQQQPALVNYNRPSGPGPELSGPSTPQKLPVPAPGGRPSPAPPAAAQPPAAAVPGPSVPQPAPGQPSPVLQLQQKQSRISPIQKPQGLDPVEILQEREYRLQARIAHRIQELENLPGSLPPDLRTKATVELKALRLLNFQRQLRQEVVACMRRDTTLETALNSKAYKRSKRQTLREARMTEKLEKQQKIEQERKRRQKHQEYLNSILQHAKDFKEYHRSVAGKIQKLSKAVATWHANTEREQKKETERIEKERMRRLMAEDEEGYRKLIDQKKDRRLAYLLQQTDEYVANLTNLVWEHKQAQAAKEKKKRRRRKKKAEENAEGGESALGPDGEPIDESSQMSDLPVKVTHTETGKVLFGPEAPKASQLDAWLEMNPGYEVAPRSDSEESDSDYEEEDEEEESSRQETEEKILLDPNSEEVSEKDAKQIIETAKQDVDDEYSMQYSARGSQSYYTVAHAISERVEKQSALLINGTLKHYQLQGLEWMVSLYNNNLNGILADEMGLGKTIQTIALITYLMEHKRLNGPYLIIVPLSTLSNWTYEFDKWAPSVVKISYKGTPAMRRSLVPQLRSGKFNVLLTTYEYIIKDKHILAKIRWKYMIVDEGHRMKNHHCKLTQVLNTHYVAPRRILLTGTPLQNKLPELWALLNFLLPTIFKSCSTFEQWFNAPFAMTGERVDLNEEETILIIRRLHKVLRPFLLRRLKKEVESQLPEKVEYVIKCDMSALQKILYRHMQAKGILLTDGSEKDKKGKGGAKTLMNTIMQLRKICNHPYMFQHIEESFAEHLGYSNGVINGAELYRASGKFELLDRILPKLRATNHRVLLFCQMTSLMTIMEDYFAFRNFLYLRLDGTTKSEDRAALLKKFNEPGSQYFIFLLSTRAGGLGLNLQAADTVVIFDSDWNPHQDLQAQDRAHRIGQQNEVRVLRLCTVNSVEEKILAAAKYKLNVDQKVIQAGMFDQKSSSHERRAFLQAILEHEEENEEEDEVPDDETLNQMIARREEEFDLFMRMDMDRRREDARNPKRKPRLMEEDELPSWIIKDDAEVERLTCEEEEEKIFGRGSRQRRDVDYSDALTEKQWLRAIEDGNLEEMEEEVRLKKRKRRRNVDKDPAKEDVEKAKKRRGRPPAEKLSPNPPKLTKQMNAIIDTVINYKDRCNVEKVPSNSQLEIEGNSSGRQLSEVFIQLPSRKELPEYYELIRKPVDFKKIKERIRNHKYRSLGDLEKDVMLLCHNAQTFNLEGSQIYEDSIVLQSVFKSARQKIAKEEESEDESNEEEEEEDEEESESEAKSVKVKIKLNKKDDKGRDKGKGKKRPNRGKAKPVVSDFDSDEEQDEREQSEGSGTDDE

SMILES: Cc1ncsc1-c1ccc([C@H](C)NC(=O)[C@@H]2C[C@@H](O)CN2C(=O)[C@@H](c2cc(OCCN3CCC(CCOc4cc(N5C6CCC5CN(c5cc(-c7ccccc7O)nnc5N)C6)ccn4)CC3)no2)C(C)C)cc1 [compound 554, (2S,4R)-1-((2R)-2-(3-(2-(4-(2-((4-(3-(3-amino-6-(2-hydroxyphenyl)pyridazin-4-yl)-3,8-diazabicyclo[3.2.1]octan-8-yl)pyridin-2-yl)oxy)ethyl)piperidin-1-yl)ethoxy)isoxazol-5-yl)-3-methylbutanoyl)-4-hydroxy-N-((S)-1-(4-(4-methylthiazol-5-yl)phenyl)ethyl)pyrrolidine-2-carboxamide]
Dmax [1]: > 75% | DC50 [2]: < 2.5 nM

SMILES: Cc1cc([C@@H](C(=O)N2C[C@H](O)C[C@H]2C(=O)N[C@@H](C)c2ccc(-c3scnc3C)cc2)[C@@H](C)COCCOc2cc(N3C4CCC3CN(c3cc(-c5ccccc5O)nnc3N)C4)ccn2)on1 [compound 301, (2S,4R)-1-((2S,3R)-4-(2-((4-(3-(3-amino-6-(2-hydroxyphenyl)pyridazin-4-yl)-3,8-diazabicyclo[3.2.1]octan-8-yl)pyridin-2-yl)oxy)ethoxy)-3-methyl-2-(3-methylisoxazol-5-yl)butanoyl)-4-hydroxy-N-((S)-1-(4-(4-methylthiazol-5-yl)phenyl)ethyl)pyrrolidine-2-carboxamide]
DC50 [3]: 2.5 to 10 nM | Dmax [4]: > 75%

SMILES: Cc1ncsc1-c1ccc([C@H](C)NC(=O)[C@@H]2C[C@@H](O)CN2C(=O)[C@@H](c2cc(OCCN3CCN(CCOc4cc(N5C6CCC5CN(c5cc(-c7ccccc7O)nnc5N)C6)ccn4)[C@@H](C)C3)no2)C(C)C)cc1 [compound 140, (2S,4R)-1-((2R)-2-(3-(2-((3S)-4-(2-((4-(3-(3-amino-6-(2-hydroxyphenyl)pyridazin-4-yl)-3,8-diazabicyclo[3.2.1]octan-8-yl)pyridin-2-yl)oxy)ethyl)-3-methylpiperazin-1-yl)ethoxy)isoxazol-5-yl)-3-methylbutanoyl)-4-hydroxy-N-((S)-1-(4-(4-methylthiazol-5-yl)phenyl)ethyl)pyrrolidine-2-carboxamide]
DC50 [3]: < 2.5 nM | Dmax [5]: > 75%

SMILES: Cc1ncsc1-c1ccc([C@@H](COCC2CCOCC2)NC(=O)[C@@H]2C[C@@H](O)CN2C(=O)[C@@H](c2cc(OCCN3CCN(CCOc4cc(N5C6CCC5CN(c5cc(-c7ccccc7O)nnc5N)C6)ccn4)CC3)no2)C(C)C)cc1 [compound 273, (2S,4R)-1-((2R)-2-(3-(2-(4-(2-((4-(3-(3-amino-6-(2-hydroxyphenyl)pyridazin-4-yl)-3,8-diazabicyclo[3.2.1]octan-8-yl)pyridin-2-yl)oxy)ethyl)piperazin-1-yl)ethoxy)isoxazol-5-yl)-3-methylbutanoyl)-4-hydroxy-N-((S)-1-(4-(4-methylthiazol-5-yl)phenyl)-2-((tetrahydro-2H-pyran-4-yl)methoxy)ethyl)pyrrolidine-2-carboxamide]
DC50 [3]: < 2.5 nM | Dmax [4]: > 75%

SMILES: Cc1ncsc1-c1ccc([C@H](C)NC(=O)[C@@H]2C[C@@H](O)CN2C(=O)[C@H](c2cc(OCC[C@H]3CCN(C[C@H]4C[C@H](Oc5cc(N6C7CCC6CN(c6cc(-c8ccccc8O)nnc6N)C7)ccn5)C4)C[C@@H]3C)no2)C(C)C)cc1 (racemic) [compound 578, (2S,4R)-1-((2S)-2-(3-(2-((3R,4R)-1-(((1r,3R)-3-((4-(3-(3-amino-6-(2-hydroxyphenyl)pyridazin-4-yl)-3,8-diazabicyclo[3.2.1]octan-8-yl)pyridin-2-yl)oxy)cyclobutyl)methyl)-3-methylpiperidin-4-yl)ethoxy)isoxazol-5-yl)-3-methylbutanoyl)-4-hydroxy-N-((S)-1-(4-(4-methylthiazol-5-yl)phenyl)ethyl)pyrrolidine-2-carboxamide]
Dmax [1]: > 75% | DC50 [2]: < 2.5 nM

DC50 [6]: > 30 nM
SMILES: Cc1ncsc1-c1ccc([C@H](C)NC(=O)[C@@H]2C[C@@H](O)CN2C(=O)[C@@H](c2cc(OCCN3CCC(O[C@H]4C[C@H](Oc5cc(N6C7CCC6CN(c6cc(N)nc8nc(-c9ccccc9O)cn68)C7)ccn5)C4)CC3)no2)C(C)C)cc1 [compound 516]

SMILES: Cc1ncsc1-c1ccc([C@H](C)NC(=O)[C@@H]2C[C@@H](O)CN2C(=O)[C@@H](c2cc(OCCN3CCC(O[C@H]4C[C@H](Oc5cccc(N6C7CCC6CN(c6cc(-c8ccccc8O)nnc6N)C7)c5)C4)CC3)no2)C(C)C)cc1 [compound 462, (2S,4R)-1-((2R)-2-(3-(2-(4-((1r,3R)-3-(3-(3-(3-amino-6-(2-hydroxyphenyl)pyridazin-4-yl)-3,8-diazabicyclo[3.2.1]octan-8-yl)phenoxy)cyclobutoxy)piperidin-1-yl)ethoxy)isoxazol-5-yl)-3-methylbutanoyl)-4-hydroxy-N-((S)-1-(4-(4-methylthiazol-5-yl)phenyl)ethyl)pyrrolidine-2-carboxamide]
Dmax [7]: > 75% | DC50 (target protein degradation, read-out: BRM DC50): < 2.5 nM

SMILES: Cc1ncsc1-c1ccc([C@H](C)NC(=O)[C@@H]2C[C@@H](O)CN2C(=O)[C@@H](c2cc(N3CCC4(CC3)CN(C[C@H]3C[C@H](Oc5cc(N6C7CCC6CN(c6cc(-c8ccccc8O)nnc6N)C7)ccn5)C3)CCO4)no2)C(C)C)cc1 [compound 624, (2S,4R)-1-((2R)-2-(3-(4-(((1r,3R)-3-((4-(3-(3-amino-6-(2-hydroxyphenyl)pyridazin-4-yl)-3,8-diazabicyclo[3.2.1]octan-8-yl)pyridin-2-yl)oxy)cyclobutyl)methyl)-1-oxa-4,9-diazaspiro[5.5]undecan-9-yl)isoxazol-5-yl)-3-methylbutanoyl)-4-hydroxy-N-((S)-1-(4-(4-methylthiazol-5-yl)phenyl)ethyl)pyrrolidine-2-carboxamide]
Dmax [1]: > 75% | DC50 [2]: < 2.5 nM

DC50 [3]: > 30 nM | Dmax [5]: > 75%
SMILES: Cc1ncsc1-c1ccc(CNC(=O)[C@@H]2C[C@@H](O)CN2C(=O)[C@H](C(C)C)N2Cc3ccccc3C2=O)c(OCCOCCOCCOCCOCCn2cc(-c3cc(-c4ccccc4O)nnc3N)cn2)c1 [compound 13, (2S,4R)-N-(2-((14-(4-(3-amino-6-(2-hydroxyphenyl)pyridazin-4-yl)-1H-pyrazol-1-yl)-3,6,9,12-tetraoxatetradecyl)oxy)-4-(4-methylthiazol-5-yl)benzyl)-4-hydroxy-1-((S)-3-methyl-2-(1-oxoisoindolin-2-yl)butanoyl)pyrrolidine-2-carboxamide]

DC50 [3]: 2.5 to 10 nM | Dmax [5]: > 75%
SMILES: Cc1ncsc1-c1ccc(CNC(=O)[C@@H]2C[C@@H](O)CN2C(=O)[C@@H](c2cc(OCCOCCOCCOCCn3cc(-c4cc(-c5ccccc5O)nnc4N)cn3)no2)C(C)C)cc1 [compound 17, (2S,4R)-1-((R)-2-(3-(2-(2-(2-(2-(4-(3-amino-6-(2-hydroxyphenyl)pyridazin-4-yl)-1H-pyrazol-1-yl)ethoxy)ethoxy)ethoxy)ethoxy)isoxazol-5-yl)-3-methylbutanoyl)-4-hydroxy-N-(4-(4-methylthiazol-5-yl)benzyl)pyrrolidine-2-carboxamide]

SMILES: Cc1ncsc1-c1ccc([C@H](C)NC(=O)[C@@H]2C[C@@H](O)CN2C(=O)[C@@H](c2cc(OCCN3CCN(CCO[C@H]4C[C@H](Oc5cc(N6C7CCC6CN(c6cc(-c8ccccc8O)nnc6N)C7)ccn5)C4)CC3)no2)C(C)C)cc1 [compound 408, (2S,4R)-1-((2R)-2-(3-(2-(4-(2-((1r,3r)-3-((4-(3-(3-amino-6-(2-hydroxyphenyl)pyridazin-4-yl)-3,8-diazabicyclo[3.2.1]octan-8-yl)pyridin-2-yl)oxy)cyclobutoxy)ethyl)piperazin-1-yl)ethoxy)isoxazol-5-yl)-3-methylbutanoyl)-4-hydroxy-N-((S)-1-(4-(4-methylthiazol-5-yl)phenyl)ethyl)pyrrolidine-2-carboxamide]
Dmax [7]: > 75% | DC50 (degradation of BRM, read-out: BRM DC50): < 2.5 nM

SMILES: Cc1ncsc1-c1ccc([C@H](C)NC(=O)[C@@H]2C[C@@H](O)CN2C(=O)[C@@H](c2cc(OCCC#Cc3ccc(OC4CC(Oc5cc(N6C7CC[C@@H]6CN(c6cc(-c8ccccc8O)nnc6N)C7)ccn5)C4)cn3)no2)C(C)C)cc1 (stereo partly drawn) [compound 227, (2S,4R)-1-((2R)-2-(3-((4-(5-((1r,3r)-3-((4-(3-(3-amino-6-(2-hydroxyphenyl)pyridazin-4-yl)-3,8-diazabicyclo[3.2.1]octan-8-yl)pyridin-2-yl)oxy)cyclobutoxy)pyridin-2-yl)but-3-yn-1-yl)oxy)isoxazol-5-yl)-3-methylbutanoyl)-4-hydroxy-N-((S)-1-(4-(4-methylthiazol-5-yl)phenyl)ethyl)pyrrolidine-2-carboxamide]
DC50 [3]: < 2.5 nM | Dmax (%) (% degraded) (BRM degradation, SW1573 cells, tested at the top concentration of between 0.3 and 10 μM): A (A > 75)

SMILES: Cc1ncsc1-c1ccc([C@H](C)NC(=O)[C@@H]2C[C@@H](O)CN2C(=O)[C@@H](c2cc(N3CCC(CN4CCC(O[C@H]5C[C@H](C#C[C@@H](C)n6cc(-c7cc(-c8ccccc8O)nnc7N)cn6)C5)CC4)CC3)no2)C(C)C)cc1 [compound 496, (2S,4R)-1-((R)-2-(3-(4-((4-((1R,3r)-3-((R)-3-(4-(3-amino-6-(2-hydroxyphenyl)pyridazin-4-yl)-1H-pyrazol-1-yl)but-1-yn-1-yl)cyclobutoxy)piperidin-1-yl)methyl)piperidin-1-yl)isoxazol-5-yl)-3-methylbutanoyl)-4-hydroxy-N-((S)-1-(4-(4-methylthiazol-5-yl)phenyl)ethyl)pyrrolidine-2-carboxamide]
DC50 [6]: < 2.5 nM | Dmax [7]: > 75%
